Several values for one entry are separate records, joined by “and”; a condition that tells them apart may be missing. Equal entries are not always repeated. Toxic doses and inconclusive results are not listed. No stated cut-off is given here; in the data, active means T/C of 150% or more; inactive means T/C below 125%.
Test system: L1210 leukemia ip in BDF1 mice, survival T/C
Assay: NCI In Vivo Anticancer Drug Screen. Data for tumor model L1210 Leukemia (intraperitoneal) in B6D2F1 (BDF1) mice
Conditions: endpoint: mean survival time, higher = longer survival
Outline: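 Read-out is survival time, reported as the treated-group measurement over the vehicle-control measurement.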

[1] = dose: 12.5 mg/kg/injection, schedule: Q01DX009 (ip), vehicle: saline
[2] = dose: 12.5 mg/kg/injection, schedule: Q04DX003 (ip), vehicle: saline
[3] = dose: 25.0 mg/kg/injection, schedule: Q01DX009 (ip), vehicle: saline
[4] = dose: 25.0 mg/kg/injection, schedule: Q04DX003 (ip), vehicle: saline
[5] = dose: 50.0 mg/kg/injection, schedule: Q04DX003 (ip), vehicle: saline
[6] = dose: 100.0 mg/kg/injection, schedule: Q01DX009 (ip), vehicle: saline with Tween-80
[7] = dose: 100.0 mg/kg/injection, schedule: Q04DX003 (ip), vehicle: saline with Tween-80
[8] = dose: 200.0 mg/kg/injection, schedule: Q01DX009 (ip), vehicle: saline with Tween-80
[9] = dose: 200.0 mg/kg/injection, schedule: Q04DX003 (ip), vehicle: saline with Tween-80
[10] = dose: 400.0 mg/kg/injection, schedule: Q04DX003 (ip), vehicle: saline with Tween-80

Measured: T/C

C[C@H]1C[C@@H]2[C@H]([C@@H](O)C[C@@]3(C)[C@H]2CC[C@]3(O)C(=O)CO)[C@@]2(C)C=CC(=O)C=C12
inactive: dose: 6.25 mg/kg/injection, schedule: Q01DX009 (ip), vehicle: Klucel (hydroxypropylcellulose) (HPC) 104 % of control | dose: 12.5 mg/kg/injection, schedule: Q01DX009 (ip), vehicle: Klucel (hydroxypropylcellulose) (HPC) 104 % of control | dose: 12.5 mg/kg/injection, schedule: Q01DX Z (sc), vehicle: water 107 % of control | dose: 25.0 mg/kg/injection, schedule: Q01DX009 (ip), vehicle: Klucel (hydroxypropylcellulose) (HPC) 102 % of control | dose: 25.0 mg/kg/injection, schedule: Q01DX Z (sc), vehicle: water 108 % of control | dose: 50.0 mg/kg/injection, schedule: Q01DX009 (ip), vehicle: Klucel (hydroxypropylcellulose) (HPC) 98 % of control | dose: 50.0 mg/kg/injection, schedule: Q01DX Z (sc), vehicle: water 107 % of control | dose: 100.0 mg/kg/injection, schedule: Q01DX009 (ip), vehicle: Klucel (hydroxypropylcellulose) (HPC) 107 % of control | dose: 100.0 mg/kg/injection, schedule: Q01DX Z (sc), vehicle: water 110 % of control | dose: 200.0 mg/kg/injection, schedule: Q01DX009 (ip), vehicle: Klucel (hydroxypropylcellulose) (HPC) 104 % of control | dose: 200.0 mg/kg/injection, schedule: Q01DX Z (sc), vehicle: water 115 % of control

CSc1ncnc2c1ncn2N(CCCCN=C=S)C(C)=O
inactive: dose: 12.5 mg/kg/injection, schedule: Q01DX001 (ip), vehicle: saline with Tween-80 107 % of control | dose: 25.0 mg/kg/injection, schedule: Q01DX001 (ip), vehicle: saline with Tween-80 98 % of control | dose: 50.0 mg/kg/injection, schedule: Q01DX001 (ip), vehicle: saline with Tween-80 103 % of control

CCCNC(C)(C)C(SSS)c1cccs1 (stereo unspecified)
inactive: dose: 100.0 mg/kg/injection, schedule: Q04DX003 (ip), vehicle: alcohol 102 % of control | dose: 200.0 mg/kg/injection, schedule: Q04DX003 (ip), vehicle: alcohol 101 % of control

COc1ccn(C)c(=O)n1
inactive: [1] 112 % of control | [2] 110 % of control | [3] 93 % of control | [4] 91 % of control | [5] 96 % of control

NC(=O)C(NC(=O)c1ccc([N+](=O)[O-])cc1)SCc1ccccc1 (stereo unspecified)
inactive: dose: 100.0 mg/kg/injection, schedule: Q04DX002 (ip), vehicle: gum acacia 96 % of control | dose: 200.0 mg/kg/injection, schedule: Q04DX002 (ip), vehicle: gum acacia 90 % of control | dose: 400.0 mg/kg/injection, schedule: Q04DX002 (ip), vehicle: gum acacia 86 % of control

CCCCCCCCCCCCCC(=O)CCC
inactive: [6] 106 % of control | [7] 86 % of control | [8] 100 % of control | [9] 110 % of control | dose: 400.0 mg/kg/injection, schedule: Q01DX009 (ip), vehicle: saline with Tween-80 104 % of control | [10] 100 % of control

Cc1ncc(CO)c(Cc2ccccc2N(C)C)c1O
inactive: dose: 100.0 mg/kg/injection, schedule: Q04DX002 (ip), vehicle: saline with Tween-80 92 % of control | dose: 200.0 mg/kg/injection, schedule: Q04DX002 (ip), vehicle: saline with Tween-80 95 % of control

CN(C)C(=O)c1cccc(NCc2ccc3nc(N)nc(N)c3c2)c1
inactive: dose: 50.0 mg/kg/injection, schedule: Q01DX009 (ip), vehicle: saline with Tween-80 93 % of control | [6] 96 % of control and 88 % of control | [7] 97 % of control | [8] 96 % of control | [9] 92 % of control | [10] 92 % of control

Nc1nc(-c2ccc(Cl)cc2)c(N=Nc2ccc(Br)cc2)s1
inactive: [7] 104 % of control | [9] 97 % of control | [10] 101 % of control

O=C(Nc1ccccc1C(F)(F)F)OCC1CCCO1 (stereo unspecified)
inactive: dose: 100.0 mg/kg/injection, schedule: Q01DX009 (ip), vehicle: gum acacia 109 % of control | dose: 200.0 mg/kg/injection, schedule: Q01DX009 (ip), vehicle: gum acacia 95 % of control | dose: 400.0 mg/kg/injection, schedule: Q01DX009 (ip), vehicle: gum acacia 100 % of control

Nc1ncnc2c1ncn2C1OC(COP(=O)(O)OP(=O)(O)OP(=O)(O)O)C(O)C1O (stereo unspecified)
inactive: dose: 80.0 mg/kg/injection, schedule: Q01DX Z (ip), vehicle: saline 87 % of control | dose: 120.0 mg/kg/injection, schedule: Q01DX Z (ip), vehicle: saline 87 % of control | dose: 180.0 mg/kg/injection, schedule: Q01DX Z (ip), vehicle: saline 95 % of control | dose: 270.0 mg/kg/injection, schedule: Q01DX Z (ip), vehicle: saline 98 % of control

CC(CN)OC12CC3CC(CC(C3)C1)C2 (stereo unspecified)
inactive: dose: 5.0 mg/kg/injection, schedule: Q04DX002 (ip), vehicle: saline 91 % of control | dose: 10.0 mg/kg/injection, schedule: Q01DX009 (ip), vehicle: saline 94 % of control | dose: 10.0 mg/kg/injection, schedule: Q04DX002 (ip), vehicle: saline 102 % of control | dose: 20.0 mg/kg/injection, schedule: Q01DX009 (ip), vehicle: saline 101 % of control | dose: 20.0 mg/kg/injection, schedule: Q04DX002 (ip), vehicle: saline 94 % of control | dose: 40.0 mg/kg/injection, schedule: Q01DX009 (ip), vehicle: saline 101 % of control | dose: 40.0 mg/kg/injection, schedule: Q04DX002 (ip), vehicle: saline 95 % of control and 91 % of control

O=C(CC(=O)C(F)(F)C(F)(F)C(F)(F)F)C(F)(F)F
inactive: [1] 107 % of control | [2] 102 % of control | [3] 88 % of control | [4] 87 % of control | [5] 93 % of control

Cc1cccc(N2CCN(CCO)CC2)c1
inactive: dose: 50.0 mg/kg/injection, schedule: Q01DX009 (ip), vehicle: saline 106 % of control
